From patent US8133849B2, “Herbicidal compounds” (Syngenta Limited, priority 2007, dated 2012)

Columns and labels:
Format in all cases: in vivo
Stellaria media = test: Example B1 herbicidal action, post-emergence, seed trays in climatic chamber, damage score 0-10; conditions: 1000 g/ha, evaluated after 9 days, 10=total damage to plant, 0=no damage to plant
Description: (§1) Seeds of a variety of test species were sown in sterilized standard soil in seed trays each having 96 cells. After cultivation for 8 to 9 days cultivation (post-emergence) under controlled conditions in a climatic chamber (cultivation at 23/17° C., day/night; 13 hours light; 50-60% humidity), the plants were treated with an aqueous spray solution of 1000 mg/l of the active ingredient dissolved in 10% DMSO (dimethyl sulfoxide, CAS RN 67-68-5) as a solvent, equivalent to 1000 g/ha. The plants were grown in the climatic chamber after application at (24/19° C., day/night; 13 hours light; 50-60% humidity) and watered twice daily. After 9 days until the test was evaluated (10=total damage to plant, 0=no damage to plant)

Amaranthus retroflexus = test: as above; conditions: 1000 g/ha, evaluated after 9 days, 10=total damage to plant, 0=no damage to plant
Description: as §1

Nasturtium officinale = test: as above; conditions: 1000 g/ha, evaluated after 9 days, 10=total damage to plant, 0=no damage to plant
Description: as §1

Solanum nigrum = test: as above; conditions: 1000 g/ha, evaluated after 9 days, 10=total damage to plant, 0=no damage to plant
Description: as §1

test plants [1] = test: Example B2 herbicidal action, post-emergence, pots in glasshouse, damage score 0-10 (10=total damage to plant; 0=no damage to plant); conditions: Example B2 protocol, after 13 days, result in words
Description: Seeds of a variety of test species were sown in standard soil in pots. After 8 days cultivation (post-emergence) under controlled conditions in a glasshouse (at 24/16° C., day/night; 14 hours light; 65% humidity), the plants were sprayed with an aqueous spray solution derived from the formulation of the technical active ingredient in acetone/water (50:50) solution containing 0.5% Tween 20 (polyoxyethelyene sorbitan monolaurate, CAS RN 9005-64-5). The test plants were then grown in a glasshouse under controlled conditions in a glasshouse (at 24/16° C., day/night; 14 hours light; 65% humidity) and watered twice daily. After 13 days, the test was evaluated (10=total damage to plant; 0=no damage to plant).

test plants [2] = test: Example B1 herbicidal action, post-emergence, all test species together; conditions: Example B1 protocol, 1000 g/ha, after 9 days, result in words
Description: as §1

Chenopodium album = test: Example B3 herbicidal action, post-emergence, small pots in glasshouse, damage score 0-10; conditions: 1000 g/ha, evaluated after 13 days, 10=total damage to plant, 0=no damage to plant
Description: (§2) Seeds of a variety of test species were sown in sterilized compost in small pots. After cultivation for seven days (post-emergence) in controlled conditions in the glasshouse (at 24/16° C., day/night; 14 hours light; 65% humidity) the plants were sprayed with 1 mg of the active ingredient, formulated in 2.5 ml acetone/water (50:50) solution, which is equivalent to 1000 g/ha. Once the foliage was dry, the pots were kept in the glasshouse (at 24/16° C., day/night; 14 hours light; 65% humidity), and were watered twice daily. After 13 days the test was evaluated (10=total damage to plant, 0=no damage to plant).

Alopecurus myosuroides = test: as above; conditions: 1000 g/ha, evaluated after 13 days, 10=total damage to plant, 0=no damage to plant
Description: as §2

SMILES | damage to plant, STEME (Stellaria media) | damage to plant, AMARE (Amaranthus retroflexus) | damage to plant, NAAOF (Nasturtium officinale) | damage to plant, SOLNI (Solanum nigrum) | damage to the test plants (test plants [1]) | damage to the test plants (test plants [2]) | damage to plant, CHEAL (Chenopodium album) | damage to plant, ALOMY (Alopecurus myosuroides)
CC(C)(C)C(=O)OC1=C(c2c(F)ccc(F)c2Cl)S(=O)(=O)Nc2nccnc21 [Compound B3, 2,2-dimethyl-propionic acid-3-(2-chloro-3,6-difluoro-phenyl)-2,2-dioxo-1,2-dihydro-2-λ-6-thia-1,5,8-triaza-naphthalen-4-yl ester] | 0 | 0 | 0 | 2 | – | – | – | –
CCOC(=O)c1ccc(C(F)(F)F)nc1C1=C(O)c2nccnc2N(CCC(F)F)S1(=O)=O [Compound D58, 2-[1-(3,3-difluoro-propyl)-4-hydroxy-2,2-dioxo-1,2-dihydro-2-λ-6-thia-1,5,8-triaza-naphthalen-3-yl]-6-trifluoromethyl-nicotinic acid ethyl ester] | – | – | – | – | little or no damage | – | – | –
CCN1c2nccnc2C(OC(=O)C(C)(C)C)=C(c2cccc(C(F)(F)F)c2)S1(=O)=O [Compound C14] | – | – | – | – | little or no damage | – | – | –
CCN1c2nccnc2C(OC(=O)C(C)(C)C)=C(c2ccc(Cl)c(Cl)c2)S1(=O)=O [Compound C10] | – | – | – | – | little or no damage | – | – | –
CN1c2nccnc2C(OC(=O)C(C)(C)C)=C(c2cc3ccccc3nc2Cl)S1(=O)=O [Compound C41] | 4 | 0 | 8 | 0 | – | – | – | –
CN1c2nccnc2C(OC(=O)C(C)(C)C)=C(c2ccc(Cl)c(Cl)c2)S1(=O)=O [Compound C8] | 0 | 2 | 0 | 7 | – | – | – | –
CC(C)(C)C(=O)OC1=C(c2ccc(Cl)cc2Cl)S(=O)(=O)Nc2nccnc21 [Compound B1] | 0 | 0 | 0 | 2 | – | – | – | –
CN1c2nccnc2C(O)=C(c2ccc(Cl)cc2Cl)S1(=O)=O [Compound D1] | 8 | 0 | 7 | 0 | – | – | – | –
CC(C)C(=O)OC1=C(c2c(F)ccc(F)c2Cl)S(=O)(=O)N(C)c2nccnc21 [Compound C9] | 6 | 7 | 6 | 4 | – | – | – | –
CCN1c2nccnc2C(OC(=O)C(C)(C)C)=C(c2ccc(Cl)cc2Cl)S1(=O)=O [Compound C5] | 7 | 5 | 8 | 1 | – | – | – | –
CN1c2nccnc2C(OC(=O)C(C)(C)C)=C(c2c(F)ccc(F)c2Cl)S1(=O)=O [Compound C4] | 8 | 7 | 6 | 5 | – | – | – | –
CC(C)(C)C(=O)OC1=C(c2ccc(Cl)c(Cl)c2)S(=O)(=O)Nc2nccnc21 [Compound B4] | – | – | – | – | – | little or no damage | – | –
CC(C)(C)C(=O)OC1=C(c2ccc(Cl)cc2Cl)S(=O)(=O)N(CC(F)F)c2nccnc21 [Compound C12, 2,2-dimethyl-propionic acid-3-(2,4-dichloro-phenyl)-1-(2,2-difluoroethyl)-2,2-dioxo-1,2-dihydro-2-λ-6-thia-1,5,8-triaza-naphthalen-4-yl ester] | – | – | – | – | – | – | 9 | 6
COC1=C(c2ccc(Cl)cc2Cl)S(=O)(=O)N(C)c2nccnc21 [Compound C3, 3-(2,4-dichloro-phenyl)-4-methoxy-1-methyl-1H-2-thia-1,5,8-triazanaphthalen-2,2-dioxide] | 2 | 1 | 2 | 3 | – | – | – | –
CC(C)C(=O)OC1=C(c2ccc(Cl)cc2Cl)S(=O)(=O)Nc2nccnc21 [Compound B2] | – | – | – | – | – | little or no damage | – | –
C#CCN1c2nccnc2C(O)=C(c2ccccc2[N+](=O)[O-])S1(=O)=O [Compound D40, 3-(2-nitro-phenyl)-2,2-dioxo-1-prop-2-ynyl-1,2-dihydro-2-λ-6-thia-1,5,8-triaza-naphthalen-4-ol] | – | – | – | – | little or no damage | – | – | –
CC(C)(C)C(=O)OC1=C(c2ccccc2[N+](=O)[O-])S(=O)(=O)N(CC(F)F)c2nccnc21 [Compound C66] | – | – | – | – | little or no damage | – | – | –
CN1c2nccnc2C(OC(=O)C2CC2)=C(c2ccc(Cl)cc2Cl)S1(=O)=O [Compound C1] | 6 | 0 | 4 | 3 | – | – | – | –
CCN1c2nccnc2C(OC(=O)C(C)(C)C)=C(c2c(F)ccc(F)c2Cl)S1(=O)=O [Compound C7] | 8 | 3 | 8 | 7 | – | – | – | –
CN1c2nccnc2C(OC(=O)C(C)(C)C)=C(c2ccc(Cl)cc2Cl)S1(=O)=O [Compound C2] | 6 | 3 | 4 | 0 | – | – | – | –
CN1c2nccnc2C(O)=C(c2c(F)ccc(F)c2Cl)S1(=O)=O [Compound D2] | 7 | 7 | 7 | 7 | – | – | – | –
